In data set [1] the test system is Mycosphaerella graminicola. The experiment in a line: In vivo test on Mycosphaerella graminicola (wheat leaf spot). The note with it: Zymoseptoria tritici, wheat plants (Scipion variety), grading 21 to 28 days after contamination, good (at least 70%) or total protection, read-out: protection (% of efficacy). The procedure: In vivo Test on Mycosphaerella graminicola (Wheat Leaf Spot)
The active ingredients tested are prepared by homogenisation in a mixture of acetone/tween/DMSO, and then diluted with water to obtain the desired active material concentration.
Wheat plants (Scipion variety), sown on a 50/50 peat soil-pozzolana substrate in starter cups and grown at 12° C., are treated at the 1-leaf stage (10 cm tall) by spraying with the active ingredient prepared as described above.
Plants, used as controls, are treated with the mixture of acetone/tween/DMSO/water not containing the active material.
After 24 hours, the plants are contaminated by spraying them with an aqueous suspension of Mycosphaerella graminicola spores (500 000 spores per ml). The spores are collected from a 7-day-old culture. The contaminated wheat plants are incubated for 72 hours at 18° C. and at 100% relative humidity, and then for 21 to 28 days at 90% relative humidity.
Grading (% of efficacy) is carried out 21 to 28 days after the contamination, in comparison with the control plants.

Data set [2] has as its system Puccinia recondita. The experiment in a line: In vivo test on Puccinia recondita f. sp. tritici (wheat brown rust). To be noted: 240 h, wheat plants (Scipion variety), grading 10 days after contamination, good (at least 70%) or total protection. As for the experimental part: In vivo Test on Puccinia reconditef. Sp. tritici (Wheat Brown Rust)
The active ingredients tested are prepared by homogenisation in a mixture of acetone/tween/DMSO, then diluted with water to obtain the desired active material concentration. Wheat plants (Scipion variety) in starter cups, sown on 50/50 peat soil-pozzolana substrate and grown at 12° C., are treated at the 1-leaf stage (10 cm tall) by spraying with the active ingredient prepared as described above. Plants, used as controls, are treated with the mixture of acetone/tween/DMSO/water not containing the active material.
After 24 hours, the plants are contaminated by spraying the leaves with an aqueous suspension of Puccinia recondita spores (100,000 spores per ml). The spores are collected from a 10-day-old contaminated wheat and are suspended in water containing 2.5 ml/of tween 80 10%. The contaminated wheat plants are incubated for 24 hours at 20° C. and at 100% relative humidity, and then for 10 days at 20° C. and at 70% relative humidity. Grading is carried out 10 days after the contamination, in comparison with the control plants.

Data set [3] concerns Podosphaera leucotricha. The experiment in a line: In vivo test on Podosphaera leucotricha (apple mildew), preventive spray. The note with it: 240 h, apple young plants, evaluated 10 days after inoculation, good (at least 70%) to total protection. The procedure:
In Vivo Test on Podosphaera leucotncha (Apple Mildew) [table] To produce a suitable preparation of active compound, 1 part by weight of active compound is mixed with the stated amounts of solvent and emulsifier, and the concentrate is diluted with water to the desired concentration. Young plants are sprayed with the preparation of active compound at the stated rate of application. After the spray coating has dried on, the plants are inoculated with an aqueous spore suspension of the causal agent of apple mildew (Podosphaera leucobicha). The plants are then placed in a greenhouse at approximately 23° C. and a relative atmospheric humidity of approximately 70%. The test is evaluated 10 days after the inoculation. Under these conditions, good (at least 70%) to total protection is observed at a dose of 100 ppm with the following compounds: 104, 160, 176, 177, 180, 186, 187, 188, 192, 194, 196, 198, 203, 204, 205, 207, 209, 210, 211, 212, 213, 218 and 446.

Data set [4] is described as follows: logP by HPLC on reversed-phase column (C 18), EEC Directive 79/B31 Annex V.A8, methods A and B. To be noted: reversed-phase HPLC column (C 18), linear gradient 10% to 90% acetonitrile. The class given is physicochemical. The procedure: Calibration was carried out using unbranched alkan-2-ones (having 3 to 16 carbon atoms) with known logP values (determination of the logP values by the retention times using linear interpolation between two successive alkanones).

Data set [5] relates to Pyrenophora teres. The experiment in a line: In vivo test on Pyrenophora teres (barley net blotch). To be noted: 288 h, barley plants (Express variety), grading 12 days after contamination, good (at least 70%) or total protection. As for the experimental part: In Vivo Test on Pyrenophore teres (Barley Net Blotch)
The active ingredients tested are prepared by homogenisation in a mixture of acetone/tween/DMSO, then diluted with water to obtain the desired active material concentration. Barley plants (Express variety) in starter cups, sown on a 50/50 peat soil-pozzolana substrate and grown at 12° C., are treated at the 1-leaf stage (10 cm tall) by spraying with the active ingredient prepared as described above. Plants, used as controls, are treated with the mixture of acetone/tween/DMSO/water not containing the active material.
After 24 hours, the plants are contaminated by spraying them with an aqueous suspension of Pyrenophora teres spores (12,000 spores per ml). The spores are collected from a 12-day-old culture. The contaminated barley plants are incubated for 24 hours at about 20° C. and at 100% relative humidity, and then for 12 days at 80% relative humidity.

Setting [6] is: HPLC reversed-phase C 18, method A: 43° C., 0.1% aqueous phosphoric acid, acetonitrile.
The mark [7] stands for this setting: HPLC reversed-phase C 18, method B: 40° C., 0.1% aqueous formic acid and acetonitrile.
Setting [8] is: LogP method B: HPLC reversed-phase C 18, 40° C., 0.1% aqueous formic acid / acetonitrile.

On to `Cc1nc(C(=O)N(C2CC2)S(=O)(=O)c2ccc(Oc3ccccc3)cc2)c(C)o1` [Compound 45], for which, in data set [1], the pest or weed control at 500 ppm is at least 70%.
Consider `Cc1nc(C(=O)N(C2CC2)S(=O)(=O)c2ccc(Oc3ccccc3)cc2)c(C(F)(F)F)o1` [Compound 49], for which the pest or weed control at 500 ppm in data set [1] and in data set [2] was at least 70% in each case.
A word on the chromatographic logP: it is a lipophilicity value derived from retention on a column. A high value points to higher lipophilicity. With `Cc1nn(C)c(F)c1C(=O)N(C1CC1)S(=O)(=O)c1ccc(C(F)(F)F)cc1` [Compound 188], in data set [3], the pest or weed control at 100 ppm is at least 70%. Moreover, the chromatographic logP in data set [4] (setting [6]) was determined as 3.1.
The matching figures for `COc1nn(C)cc1C(=O)N(C1CC1)S(=O)(=O)c1ccccc1O` [Compound 211]: at least 70% and 1.94.
Taken in the same sequence, the figures for `Cc1nn(C)c(F)c1C(=O)N(C1CC1)S(=O)(=O)c1c(O)cccc1O` [Compound 218] were at least 70% and 2.52.
Turning to `Cn1cc(C(=O)N(C2CC2)S(=O)(=O)c2ccc(Oc3ccccc3)cc2)c(C(F)F)n1` [Compound 249], in data set [1], the pest or weed control at 500 ppm is at least 70%.
Consider `CCOc1nn(C)cc1C(=O)N(C1CC1)S(=O)(=O)c1ccc(Oc2cccc(C(F)(F)F)c2)cc1` [Compound 264], for which the pest or weed control at 500 ppm in data set [1] and in data set [2] was at least 70% each time.
With `COc1nn(C)cc1C(=O)N(C1CC1)S(=O)(=O)c1ccc(Oc2ccc(C(F)(F)F)cc2)cc1` [Compound 268], the pest or weed control at 500 ppm in data set [5] is at least 70%.
`Cn1nc(C(F)(F)F)c(C(=O)N(C2CC2)S(=O)(=O)c2cccc(O)c2O)c1F` [Compound 357] came in with a pest or weed control at 500 ppm in data set [5] of at least 70%. The compound also gave a chromatographic logP in data set [4] (setting [7]) of 3.3.
Take `Cn1nc(C(F)(F)F)c(C(=O)N(C2CC2)S(=O)(=O)c2cccc(Cl)c2F)c1F` [Compound 358]: the pest or weed control at 500 ppm in data set [1] is at least 70%. Further, the chromatographic logP in data set [4] (setting [7]) came out at 3.2.
The matching figures for `CCc1nn(C)c(F)c1C(=O)N(C1CC1)S(=O)(=O)c1ccccc1C(F)(F)F` [Compound 377]: at least 70% and 2.9.
In data set [5], `CCc1nn(C)c(F)c1C(=O)N(C1CC1)S(=O)(=O)c1ccc(C(C)(C)C)cc1` [Compound 381] had a pest or weed control at 500 ppm of at least 70%.
Regarding `CC/C=N/N(C)/C(F)=C/C(=O)N(C1CC1)S(=O)(=O)c1csc(O)c1O` [Compound 438], the pest or weed control at 500 ppm in data set [1] was at least 70%. This compound showed a chromatographic logP in data set [4] (setting [8]) of 4.
`Cc1nn(C)c(F)c1C(=O)N(C1CC1)S(=O)(=O)c1cccnc1O` [Compound 446] registered a pest or weed control at 100 ppm in data set [3] of at least 70%. This compound displayed a chromatographic logP in data set [4] (LogP method A: HPLC reversed-phase C 18, 43° C., 0.1% aqueous phosphoric acid / acetonitrile) of 1.96.
For the compound `COc1nn(C)cc1C(=O)N(C1CC1)S(=O)(=O)c1ccc2c(c1)CCC(C)(C)O2` [Compound 457], the pest or weed control at 500 ppm in data set [1] and in data set [2] was at least 70% in each case.
With `COc1nn(C)cc1C(=O)N(C1CC1)S(=O)(=O)c1ccc(Oc2cccc(N(C)C)c2)c(Cl)c1` [Compound 502], the pest or weed control at 500 ppm in data set [1] and in data set [2] was at least 70% in each case.
Regarding `COc1nn(C)cc1C(=O)N(C1CC1)S(=O)(=O)c1ccc(Oc2cccc(C(F)(F)F)c2)cc1Cl` [Compound 508], the pest or weed control at 500 ppm in data set [1] was at least 70%.
Same read-out and setting: as for `COc1nn(C)cc1C(=O)N(C1CC1)S(=O)(=O)c1ccc(Oc2cccc(C(F)(F)F)c2F)cc1Cl` [Compound 519], the figure is at least 70%.
For the compound `CCOc1nn(C)cc1C(=O)N(C1CC1)S(=O)(=O)c1ccc2c(c1)CCC(C)(C)O2` [Compound 524], the pest or weed control at 500 ppm in data set [1] and in data set [2] was at least 70% in each case.
Turning to `CCOc1nn(C)cc1C(=O)N(C1CC1)S(=O)(=O)c1ccc(Oc2ccc(OC)c(OC)c2)c(O)c1` [Compound 528], the pest or weed control at 500 ppm in data set [1] and in data set [2] was at least 70% throughout. Also, the chromatographic logP in data set [4] (setting [8]) is 3.5.
For `CCOc1nn(C)cc1C(=O)N(C1CC1)S(=O)(=O)c1ccc(Oc2ccccc2)cc1O` [Compound 530], the pest or weed control at 500 ppm in data set [1] was at least 70%. Also, the chromatographic logP in data set [4] (setting [8]) stood at 3.6.
With `CCOc1nn(C)cc1C(=O)N(C1CC1)S(=O)(=O)c1ccc(Oc2ccc(O)cc2)cc1O` [Compound 535], the pest or weed control at 500 ppm in data set [1] is at least 70%. Also, in data set [4] (setting [8]), the chromatographic logP stood at 4.
As to `CCOc1nn(C)cc1C(=O)N(C1CC1)S(=O)(=O)C1C=CC(OC2=CC=C(C(F)(F)F)CC2)=CC1O` (centres unmarked) [Compound 538], the pest or weed control at 500 ppm in data set [1] is at least 70%. In data set [4] (setting [8]), this compound displayed a chromatographic logP of 4.1.
Consider `CCOc1nn(C)cc1C(=O)N(C1CC1)S(=O)(=O)c1ccc(Oc2cccc(N(C)C)c2)c(O)c1` [Compound 539], for which the pest or weed control at 500 ppm in data set [1] and in data set [2] was at least 70% in each case. The same compound came in with a chromatographic logP in data set [4] (setting [8]) of 4.1.
For the compound `CCOc1nn(C)cc1C(=O)N(C1CC1)S(=O)(=O)c1ccc(Oc2cccc(C(F)(F)F)c2F)c(O)c1` [Compound 547], the pest or weed control at 500 ppm in data set [1] and in data set [2] was at least 70% each time. This compound came in with a chromatographic logP in data set [4] (setting [8]) of 4.3.
In the case of `CCOc1nn(C)cc1C(=O)N(C1CC1)S(=O)(=O)c1ccc(Oc2ccc(C(F)(F)F)cc2)c(Br)c1` [Compound 550], the pest or weed control at 500 ppm in data set [1] and in data set [2] was at least 70% throughout. In data set [4] (setting [8]), the chromatographic logP turned out to be 4.4.
Turning to `CCOc1nn(C)cc1C(=O)N(C1CC1)S(=O)(=O)c1ccc(Oc2ccc(Br)cc2)c(O)c1` [Compound 552], the pest or weed control at 500 ppm in data set [1] and in data set [2] was at least 70% each time. In data set [4] (setting [8]), this compound returned a chromatographic logP of 4.5.
`CCOc1nn(C)cc1C(=O)N(C1CC1)S(=O)(=O)c1ccc(Oc2ccc(O)c(C(F)(F)F)c2)c(Cl)c1` [Compound 556]: the pest or weed control at 500 ppm in data set [1] and in data set [2] was at least 70% throughout. The compound further registered a chromatographic logP in data set [4] (setting [8]) of 4.8.
With `CCOc1nn(C)cc1C(=O)N(C1CC1)S(=O)(=O)c1ccc(Cc2cc(O)cc(O)c2)c(O)c1` [Compound 559], the pest or weed control at 500 ppm in data set [1] and in data set [2] was at least 70% throughout. The chromatographic logP in data set [4] (setting [8]) worked out at 5.
Turning to `CCc1nn(C)c(F)c1C(=O)N(C1CC1)S(=O)(=O)c1ccc(Oc2cccc(C)c2)cc1` [Compound 578], in data set [1], the pest or weed control at 500 ppm was at least 70%.
Consider `Cc1cccc(Oc2ccc(S(=O)(=O)N(C(=O)c3c(C)nn(C)c3F)C3CC3)cc2)c1` [Compound 583], for which, in data set [1], the pest or weed control at 500 ppm is at least 70%.
Consider `CCOc1nn(C)cc1C(=O)N(C1CC1C)S(=O)(=O)c1ccc(Oc2ccccc2)cc1` (centres unmarked) [Compound 675], for which the pest or weed control at 500 ppm in data set [1] was at least 70%.

These data come from US7932283B2, “Fungicide N-cyclopropyl-sulfonylamide derivatives” (Bayer Cropscience AG, priority 2006, dated 2011).
